Measured values as given in patent publication US8106197B2, “Aminoheteroaryl compounds as protein kinase inhibitors” (Pfizer Inc., priority 2003, dated 2012).

Target: T1, HGFR (Homo sapiens, UniProt P08581)
T1 construct: purchased Upstate 14-526
Test: HGFR continuous-coupled spectrophotometric assay
Format: biochemical

T1 sequence (P08581 974-1390 limits assumed): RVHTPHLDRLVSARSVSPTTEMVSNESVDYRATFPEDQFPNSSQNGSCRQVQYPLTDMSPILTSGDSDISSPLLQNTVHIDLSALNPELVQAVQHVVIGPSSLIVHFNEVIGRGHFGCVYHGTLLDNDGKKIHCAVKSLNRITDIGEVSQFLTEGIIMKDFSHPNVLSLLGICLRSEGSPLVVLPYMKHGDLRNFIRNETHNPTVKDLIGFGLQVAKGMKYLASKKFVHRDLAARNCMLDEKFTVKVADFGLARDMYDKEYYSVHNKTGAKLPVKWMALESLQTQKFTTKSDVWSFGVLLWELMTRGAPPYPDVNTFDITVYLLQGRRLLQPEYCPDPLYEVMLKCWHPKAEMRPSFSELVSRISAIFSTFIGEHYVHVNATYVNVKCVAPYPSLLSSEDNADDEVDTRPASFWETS

Structure (SMILES) | % inhibition
Nc1ncc(-c2ccc(C(=O)N3CCC(N4CCCC4)CC3)cc2)cc1OCc1ccc(OC(F)(F)F)cc1 | % inhibition = 20
Nc1ncc(-c2ccc(C(=O)N3CCC(N4CCCC4)CC3)cc2)cc1OCc1cc(F)cc(F)c1 | % inhibition = 14
Nc1ncc(-c2ccc(C(=O)N3CCC(N4CCCC4)CC3)cc2)cc1OCc1cccc(F)c1F | % inhibition = 24
COc1ccc(-c2nc(COc3cc(-c4ccc(C(=O)N5CCC(N6CCCC6)CC5)cc4)cnc3N)no2)cc1 | % inhibition = 10
Nc1ncc(-c2ccc(C(=O)N3CCC(N4CCCC4)CC3)cc2)cc1OCc1ncc(C(F)(F)F)cc1Cl | % inhibition = 8
Nc1ncc(-c2ccc(C(=O)N3CCC(N4CCCC4)CC3)cc2)cc1OCc1csc2ccc(Cl)cc12 | % inhibition = 37
Nc1ncc(-c2ccc(C(=O)N3CCC(N4CCCC4)CC3)cc2)cc1OCc1ccc(Br)cc1F | % inhibition = 31
Nc1ncc(-c2ccc(C(=O)N3CCC(N4CCCC4)CC3)cc2)cc1OCc1cc(Br)cc(Br)c1 | % inhibition = 45
CS(=O)(=O)c1ccc(COc2cc(-c3ccc(C(=O)N4CCC(N5CCCC5)CC4)cc3)cnc2N)cc1 | % inhibition = 11
N#Cc1ccccc1-c1ccc(COc2cc(-c3ccc(C(=O)N4CCC(N5CCCC5)CC4)cc3)cnc2N)cc1 | % inhibition = 77
Nc1ncc(-c2ccc(C(=O)N3CCC(N4CCCC4)CC3)cc2)cc1OCc1ccc(C(=O)NCCN2CCOCC2)cc1 | % inhibition = 11
CN(C)CCNC(=O)c1ccc(COc2cc(-c3ccc(C(=O)N4CCC(N5CCCC5)CC4)cc3)cnc2N)cc1 | % inhibition = 9
Nc1ncc(-c2ccc(C(=O)N3CCC(N4CCCC4)CC3)cc2)cc1OCc1ccc(C(=O)N2CCN(Cc3ccccc3)CC2)cc1 | % inhibition = 12
Nc1ncc(-c2ccc(C(=O)N3CCC(N4CCCC4)CC3)cc2)cc1OCc1ccc(C(=O)NCc2ccccn2)cc1 | % inhibition = 7
Nc1ncc(-c2ccc(C(=O)N3CCC(N4CCCC4)CC3)cc2)cc1OCc1cccc(C(=O)Nc2cccnc2)c1 | % inhibition = 10
Nc1ncc(-c2ccc(C(=O)N3CCC(N4CCCC4)CC3)cc2)cc1OCc1cccc(C(=O)NCc2cccnc2)c1 | % inhibition = 14
Nc1ncc(-c2ccc(C(=O)N3CCC(N4CCCC4)CC3)cc2)cc1OCc1cccc(C(=O)NCc2ccncc2)c1 | % inhibition = 10
Nc1ncc(-c2ccc(C(=O)N3CCC(N4CCCC4)CC3)cc2)cc1OCc1cccc(C(=O)NCCc2ccccn2)c1 | % inhibition = 12
Nc1ncc(-c2ccc(C(=O)N3CCC(N4CCCC4)CC3)cc2)cc1OCc1cccc(C(=O)NC2CCN(Cc3ccccc3)C2)c1 (stereo not shown) | % inhibition = 13
Nc1ncc(-c2ccc(C(=O)N3CCC(N4CCCC4)CC3)cc2)cc1OCc1ccc(C(=O)NCCc2ccccn2)cc1 | % inhibition = 11
Nc1ncc(-c2ccc(C(=O)N3CCC(N4CCCC4)CC3)cc2)cc1OCc1ccc(C(=O)NCCN2CCCC2)cc1 | % inhibition = 10
Nc1ncc(-c2ccc(C(=O)N3CCC(N4CCCC4)CC3)cc2)cc1OCc1ccc(C(=O)NCCCN2CCCC2=O)cc1 | % inhibition = 11

Structure (SMILES) | % inhibition
Nc1ncc(-c2ccc(C(=O)N3CCC(N4CCCC4)CC3)cc2)cc1OCc1cccc(C(=O)NC2CCN(Cc3ccccc3)CC2)c1 | % inhibition = 13
Nc1ncc(-c2ccc(C(=O)N3CCC(N4CCCC4)CC3)cc2)cc1OCc1ccc(C(=O)NC2CCN(Cc3ccccc3)CC2)cc1 | % inhibition = 11
CCN1CCCC1CNC(=O)c1cccc(COc2cc(-c3ccc(C(=O)N4CCC(N5CCCC5)CC4)cc3)cnc2N)c1 (stereo not shown) | % inhibition = 10
CCN1CCCC1CNC(=O)c1ccc(COc2cc(-c3ccc(C(=O)N4CCC(N5CCCC5)CC4)cc3)cnc2N)cc1 (stereo not shown) | % inhibition = 18
CN(C)c1ccc(NC(=O)c2cccc(COc3cc(-c4ccc(C(=O)N5CCC(N6CCCC6)CC5)cc4)cnc3N)c2)cc1 | % inhibition = 23
CCN(CC)c1ccc(NC(=O)c2ccc(COc3cc(-c4ccc(C(=O)N5CCC(N6CCCC6)CC5)cc4)cnc3N)cc2)cc1 | % inhibition = 47
Nc1ncc(-c2ccc(C(=O)N3CCC(N4CCCC4)CC3)cc2)cc1OCc1ccc(C(=O)NCc2cccnc2)cc1 | % inhibition = 15
Nc1ncc(-c2ccc(C(=O)N3CCC(N4CCCC4)CC3)cc2)cc1OCc1ccc(C(=O)NC2CCN(Cc3ccccc3)C2)cc1 (stereo not shown) | % inhibition = 24
Nc1ncc(-c2ccc(C(=O)N3CCC(N4CCCC4)CC3)cc2)cc1OCc1cccc(C(=O)Nc2ccc(N3CCCCC3)cc2)c1 | % inhibition = 32
CC(C)Oc1cc(C(F)(F)F)nc2ccc(COc3cc(-c4ccc(C(=O)N5CCC(N6CCCC6)CC5)cc4)cnc3N)cc12 | % inhibition = 19
Nc1ncc(-c2ccc(C(=O)N3CCC(N4CCCC4)CC3)cc2)cc1OCc1csc(-c2ccc(C(F)(F)F)cc2)n1 | % inhibition = 21
Nc1ncc(-c2ccc(C(=O)N3CCC(N4CCCC4)CC3)cc2)cc1OCc1ccc2ccccc2c1Br | % inhibition = 59
CN(C)CCNC(=O)c1cccc(COc2cc(-c3ccc(C(=O)N4CCC(N5CCCC5)CC4)cc3)cnc2N)c1 | % inhibition = 20
Nc1ncc(-c2ccc(C(=O)N3CCC(N4CCCC4)CC3)cc2)cc1OCc1cc(C(F)(F)F)ccc1Cl | % inhibition = 26
Nc1ncc(-c2ccc(C(=O)N3CCC(N4CCCC4)CC3)cc2)cc1OCc1ccc(C(F)(F)F)c(F)c1 | % inhibition = 24
Nc1ncc(-c2ccc(C(=O)N3CCC(N4CCCC4)CC3)cc2)cc1OCc1cc(F)ccc1C(F)(F)F | % inhibition = 26
Nc1ncc(-c2ccc(C(=O)N3CCC(N4CCCC4)CC3)cc2)cc1OCc1ccccc1OC(F)(F)F | % inhibition = 21
CCOC(=O)C1CCN(C(=O)c2ccc(COc3cc(-c4ccc(C(=O)N5CCC(N6CCCC6)CC5)cc4)cnc3N)cc2)CC1 | % inhibition = 16
CCOC(=O)CCNC(=O)c1cccc(COc2cc(-c3ccc(C(=O)N4CCC(N5CCCC5)CC4)cc3)cnc2N)c1 | % inhibition = 14
COC(=O)c1ccc(COc2cc(-c3ccc(C(=O)N4CCC(N5CCCC5)CC4)cc3)cnc2N)c(OC)c1 | % inhibition = 15
Nc1ncc(-c2ccc(C(=O)N3CCC(N4CCCC4)CC3)cc2)cc1OCc1ccc(S(=O)(=O)Nc2ccc(F)cc2)cc1 | % inhibition = 15
Nc1ncc(-c2ccc(C(=O)N3CCC(N4CCCC4)CC3)cc2)cc1OCc1ccc(-c2ccnc(Br)n2)cc1 | % inhibition = 17

Structure (SMILES) | % inhibition
Nc1ncc(-c2ccc(C(=O)N3CCC(N4CCCC4)CC3)cc2)cc1OCc1cscn1 | % inhibition = 12
Nc1ncc(-c2ccc(C(=O)N3CCC(N4CCCC4)CC3)cc2)cc1OCc1cccc(CO)n1 | % inhibition = 15
Cc1noc(COc2cc(-c3ccc(C(=O)N4CCC(N5CCCC5)CC4)cc3)cnc2N)n1 | % inhibition = 11
Nc1ncc(-c2ccc(C(=O)N3CCC(N4CCCC4)CC3)cc2)cc1OCc1cccc(-c2ccnc(Br)n2)c1 | % inhibition = 13
Nc1ncc(-c2ccc(C(=O)N3CCC(N4CCCC4)CC3)cc2)cc1OCc1ccc(C(F)(F)F)nc1 | % inhibition = 13
Nc1ncc(-c2ccc(C(=O)N3CCC(N4CCCC4)CC3)cc2)cc1OCc1ccc(S(N)(=O)=O)cc1 | % inhibition = 17
Nc1ncc(-c2ccc(C(=O)N3CCC(N4CCCC4)CC3)cc2)cc1OCc1ccc(-c2cnc(Br)nc2)cc1 | % inhibition = 33
Nc1ncc(-c2ccc(C(=O)N3CCC(N4CCCC4)CC3)cc2)cc1OCc1cn2ccccc2n1 | % inhibition = 11
COc1cc(COc2cc(-c3ccc(C(=O)N4CCC(N5CCCC5)CC4)cc3)cnc2N)cc(OC)c1 | % inhibition = 17
CCOC(=O)CCNS(=O)(=O)c1ccc(COc2cc(-c3ccc(C(=O)N4CCC(N5CCCC5)CC4)cc3)cnc2N)cc1 | % inhibition = 15
Nc1ncc(-c2ccc(C(=O)N3CCC(N4CCCC4)CC3)cc2)cc1OCc1ccc(C(=O)c2ccccc2)cc1 | % inhibition = 31
COc1cccc(COc2cc(-c3ccc(C(=O)N4CCC(N5CCCC5)CC4)cc3)cnc2N)c1OC | % inhibition = 23
Cc1cc(-c2onc(C)c2COc2cc(-c3ccc(C(=O)N4CCC(N5CCCC5)CC4)cc3)cnc2N)no1 | % inhibition = 22
Cc1nc2ccc(COc3cc(-c4ccc(C(=O)N5CCC(N6CCCC6)CC5)cc4)cnc3N)cc2c(=O)[nH]1 | % inhibition = 12
Nc1ncc(-c2ccc(C(=O)N3CCC(N4CCCC4)CC3)cc2)cc1OCc1ccc(S(=O)(=O)N2CCOCC2)cc1 | % inhibition = 14
COCOc1ccc(S(=O)(=O)c2ccc(COc3cc(-c4ccc(C(=O)N5CCC(N6CCCC6)CC5)cc4)cnc3N)cc2)cc1 | % inhibition = 18
COc1ccc2sc(COc3cc(-c4ccc(C(=O)N5CCC(N6CCCC6)CC5)cc4)cnc3N)cc2c1 | % inhibition = 13
Nc1ncc(-c2ccc(C(=O)N3CCC(N4CCCC4)CC3)cc2)cc1OCc1ccc(S(=O)(=O)c2ccc(F)cc2)cc1 | % inhibition = 13
Cc1nc2scc(COc3cc(-c4ccc(C(=O)N5CCC(N6CCCC6)CC5)cc4)cnc3N)c2c(=O)[nH]1 | % inhibition = 10
Nc1ncc(-c2ccc(C(=O)N3CCC(N4CCCC4)CC3)cc2)cc1OCc1cncc2ccccc12 | % inhibition = 9
